Reference: US20160024051A1, “SALTS AND SOLID FORMS OF ISOQUINOLINONES AND COMPOSITION COMPRISING AND METHODS OF USING THE SAME” (INFINITY PHARMACEUTICALS, INC., priority 2013, published 2016)
Where a name gives a salt, the structure may show the parent alone. Read-outs that look alike come from different tables or passages of the source.

Key:
[1] = Solubility of free base hydrate and salts versus pH (Table 24); assay type: physicochemical
Dissolution = assay type: physicochemical
Method: The dissolution rate for the hydrate was about 80% in 15 min at pH 1.2 and about 20% in 60 min at pH 2.5. The dissolution rate of the bis-sulfuric acid salt was 100% in 15 min at both pH 1.2 and pH 2.5.

[2] = Polymorphism study: maturation (temperature cycling RT to 50° C.) in solvents, XRPD; assay type: physicochemical
Method: One of 21 solvents was added to each vial in a number of aliquots (up to 30 volumes), with shaking. All the samples were then placed under maturation between RT to 50° C. (4 hours at each temperature) for 3 days. After maturation the samples were analysed by XRPD. Clear solutions were cooled to −20° C. (freezer). If no precipitation occurred samples were evaporated at RT.
Samples were placed under maturation between RT-50° C. (4 hours cycle) for 3 days. After maturation the samples were analyzed by XRPD. Clear solutions were then cooled to −20° C. (freezer). If no precipitation occurred, samples were evaporated at RT.
(§1) The corresponding solvents and solvent mixtures were added in portions of (a total of) 5, 10, 20, and 30 volumes at 50° C., with shaking, aiming for clear solutions. After each addition, the vials were allowed to shake for 20 minutes, after which observations were made. Solutions were allowed to evaporate, whereas slurries were set for 8 hour temperature cycling maturation, between RT and 50° C., for 5 days.
The oils obtained by solvent evaporation were used for the maturation screen. Anhydrous solvents (5 volumes; 100 μL) were used in order to minimise the amount of water present. Any solutions were allowed to slowly evaporate, whereas slurries were set for 8 hour temperature cycling maturation, between RT and 50° C. […] These were matured for a further 24 hours before performing XRPD analysis.
The selected solvents and solvent mixtures (5 to 20 volumes) were added with stirring. Any solutions were allowed to slowly evaporate, whereas slurries were set for 8 hour temperature cycling maturation, between RT and 50° C., for 2 days.
Crystals were ground in order to analyse them by XRPD. Suspensions were set for temperature cycling for a total of five days after which time XRPD analysis was carried out.

[3] = Thermodynamic aqueous solubility; assay type: physicochemical; conditions: salts scaled-up at 0.5 gram
[4] = Solubility of bis-sulfuric acid salt Form 1 in solvents at 50° C.; assay type: physicochemical
Method: as §1, with “Bis-Sulfuric acid salt Form 1 of Compound 1 (ca. 35 mg) was weighed into vials. The” for “The”

[5] = Gravimetric vapour sorption (GVS); assay type: physicochemical
Method: Sorption isotherms were obtained using a Hiden IGASorp moisture sorption analyser, controlled by CFRSorp software. The sample temperature was maintained at 25° C. by a Huber re-circulating water bath. The humidity was controlled by mixing streams of dry and wet nitrogen, with a total flow rate of 250 ml/min. The relative humidity (RH) was measured by a calibrated Vaisala RH probe (dynamic range of 0-95% RH), located near the sample. The weight change, (mass relaxation) of the sample as a function of % RH was constantly monitored by the microbalance (accuracy ±0.001 mg). Typically 10-20 mg of sample was placed in a tared mesh stainless steel basket under ambient conditions. The sample was loaded and unloaded at 40% RH and 25° C. (typical room conditions). A moisture sorption isotherm was performed as outlined below (2 scans giving 1 complete cycle). The standard isotherm was performed at 25° C. at 10% RH intervals over a 0-90% RH range.
The software uses a least squares minimisation procedure together with a model of the mass relaxation, to predict an asymptotic value. The measured mass relaxation value must be within 5% of that predicted by the software, before the next % RH value is selected. The minimum equilibration time was set to 1 hour and the maximum to 4 hours. The sample was recovered after completion of the isotherm and re-analysed by XRPD.

[6] = 2-Week comparative stability studies; assay type: physicochemical; conditions: 2 weeks; for change in appearance: 5° C. (closed), ambient (closed), ambient (closed-exposed to light), ambient (open), 60° C. (closed), RT/75% RH (open), 40° C./75% RH (open); for change of water content, as determined by KF: all seven storage conditions
Method: (closed); (ii) ambient (closed); (iii) ambient (closed-exposed to light); (iv) ambient (open); (v) 60° C. (closed); (vi) RT/75% RH (open); and (vii) 40° C./75% RH (open).

[7] = Density and flowability (Hausner ratio, Carr index); assay type: physicochemical
From the text: The Hausner ratio and the Carr index are correlated to the flowability of a powder or granular material. […] The flowability of both salts are acceptable for manufacturing.

[8] = Storage at 40° C./75% RH (elevated humidity) for 1 week, re-analysis by XRPD/HPLC; conditions: salt screen solids, 1 week, XRPD pattern or observation
Method: The crystalline solids were filtered, dried at ambient conditions, and stored at 40° C./75% RH for 1 week and analyzed by ^1H NMR/IC.
Samples from the screen using amorphous free base Compound 1 were analysed by ^1H-NMR and DSC, and re-analysis by XRPD was also carried out after drying at 50° C./vacuum and storage at 40° C./75% RH (the same sample was dried and stored at elevated humidity).

[9] = PK properties in non-clinical animal species (all species); assay type: in vivo, CD-1 mouse, Wistar rat, Cyno monkey, Beagle dog; conditions: animal pharmacology models and non-clinical toxicology species
Method: For example, Compound 1 bis-hydrogen sulfate monohydrate was evaluated in CD-1 mouse, Wistar rat, Cyno monkey, and Beagle dog. Cross species allometric scaling of CL (drug clearance) and Vss (volume at steady state) predicts low CL, high Vss and long T112 for Compound 1 in humans.

[10] = Storage at 25° C./93% RH for 1 week, re-analysis by XRPD/HPLC; assay type: physicochemical; conditions: 1 week
[11] = Solubility assessment using FB Hydrate Form 2; assay type: physicochemical
Method: The best solvent systems (clear solutions) were methanol:anisole 1:1 and DMSO (10 volumes, at RT), dioxane (10 volumes, 50° C.), chloroform (20 volumes, RT). […]

[12] = Stability of Hydrate Form 2: maturation in water or acetic acid: water 1:3 at constant temperature; assay type: physicochemical; conditions: 40 hours
Method: Both solids obtained from maturation at 25° C.

COc1cc(-c2cccc3cc([C@H](C)Nc4nc(N)ncc4C#N)n(-c4ccccc4)c(=O)c23)ccn1 [bis-sulfuric acid monohydrate salt of (S)-2-amino-4-((1-(8-(2-methoxypyridin-4-yl)-1-oxo-2-phenyl-1,2-dihydroisoquinolin-3-yl)ethyl)amino)pyrimidine-5-carbonitrile]
Solubility ([1]; Simulated Gastric Fluid, thermodynamic from solid, read-out: Solubility): > 17 mg/mL
Solubility ([1]; Simulated Intestinal Fluid, fassgf or other biorelevant, thermodynamic from solid, read-out: Solubility): 0.04 mg/mL
Solubility ([1]; aqueous buffer, thermodynamic from solid, citrate buffer, pH 2.5, at 37° C., read-out: Solubility): > 12 mg/mL
Solubility ([1]; aqueous buffer, thermodynamic from solid, citrate buffer, pH 2.5, at RT, read-out: Solubility): > 12 mg/mL
Solubility ([1]; aqueous buffer, thermodynamic from solid, pH 1.65, 37° C., read-out: Solubility): > 12 mg/mL
Solubility ([1]; aqueous buffer, thermodynamic from solid, pH 1.65, RT, read-out: Solubility): > 12 mg/mL
Solubility ([1]; aqueous buffer, thermodynamic from solid, pH 1.9, 37° C., read-out: Solubility): > 12 mg/mL
Solubility ([1]; aqueous buffer, thermodynamic from solid, pH 1.9, RT, read-out: Solubility): > 12 mg/mL
Solubility ([1]; aqueous buffer, thermodynamic from solid, pH 2.5, 37° C., read-out: Solubility): > 12 mg/mL
Solubility ([1]; aqueous buffer, thermodynamic from solid, pH 2.5, RT, read-out: Solubility): > 12 mg/mL
Solubility ([1]; aqueous buffer, thermodynamic from solid, pH 3.0, 37° C., read-out: Solubility): 3.45 mg/mL
Solubility ([1]; aqueous buffer, thermodynamic from solid, pH 3.0, RT, read-out: Solubility): 1.58 mg/mL
Solubility ([1]; aqueous buffer, thermodynamic from solid, pH 3.8, 37° C., read-out: Solubility): 0.28 mg/mL
Solubility ([1]; aqueous buffer, thermodynamic from solid, pH 3.8, RT, read-out: Solubility): 0.29 mg/mL
Solubility ([1]; simulated gastric fluid, thermodynamic from solid, 0.1N HCl, 37° C., at saturation, read-out: Solubility): > 90 mg/mL
Solubility ([1]; thermodynamic from solid, Water (pH 1.16), read-out: Solubility): > 60 mg/mL
solubility compared to the hydrate ([1]; up to pH 3): significantly higher solubility
dissolution rate (Dissolution; in 15 min at pH 1.2, listed as bis-sulfuric acid salt): 100%
dissolution rate (Dissolution; in 15 min at pH 2.5): 100%
changes on maturation of slurries ([2]; 30 volumes of solvent, RT to 50° C., five days, all solvents other than acetic acid/water, methanol, ethanol/water): did not show any changes
Thermodynamic aqueous solubility [3]: > 51 mg/mL
volumes of solvent giving a clear solution ([4]; acetic acid/water 1:3 at 50° C.): 5 volumes
volumes of solvent giving a clear solution ([4]; methanol at 50° C.): 5 volumes
GVS Single cycle ([5]; hygroscopicity in words, 25° C.): Slightly hygroscopic
change in appearance [6]: No change in appearance
change of water content, as determined by KF [6]: No significant change
flowability compared to the hydrate [7]: improved flowability
Storage 40° C./75% RH [8]: salt Pattern 1
oral pharmacokinetics [9]: good oral pharmacokinetics

COc1cc(-c2cccc3cc([C@H](C)Nc4nc(N)ncc4C#N)n(-c4ccccc4)c(=O)c23)ccn1 [Form 2 of the free base of Compound 1]
Solubility ([1]; 0.1N HCl, 37° C., at saturation): 16 mg/mL
Solubility ([1]; Simulated Gastric Fluid): 8.13 mg/mL
Solubility ([1]; Simulated Intestinal Fluid): 0.002 mg/mL
Solubility ([1]; citrate buffer, pH 2.5): 0.2-0.3 mg/mL ^
dissolution rate (Dissolution; in 15 min at pH 1.2, listed as hydrate): about 80%
dissolution rate (Dissolution; in 60 min at pH 2.5): about 20%
XRPD form after maturation in acetic acid: water 1:1 ([2]; three days, listed as hydrate Form 2 of free base Compound 1): did not show any changes in form
stability on storage at 25° C./93% RH [10]: stable
stability on storage at 25° C./93% RH ([10]; listed as Free base Form 2): mainly the same pattern with a few differences
volumes of solvent giving a clear solution ([11]; 2-methyltetrahydrofuran): 50 volumes
volumes of solvent giving a clear solution ([11]; DCM): 100 volumes
volumes of solvent giving a clear solution ([11]; DCM:methanol 1:1): 100 volumes
volumes of solvent giving a clear solution ([11]; DME): 100 volumes
volumes of solvent giving a clear solution ([11]; DMSO, at RT): 10 volumes
volumes of solvent giving a clear solution ([11]; THF): 100 volumes
volumes of solvent giving a clear solution ([11]; THF:5% water): 50 volumes
volumes of solvent giving a clear solution ([11]; acetonitrile/5% water): 100 volumes
volumes of solvent giving a clear solution ([11]; chloroform, RT): 20 volumes
volumes of solvent giving a clear solution ([11]; dioxane, 50° C.): 10 volumes
volumes of solvent giving a clear solution ([11]; ethanol:anisole): 50 volumes
volumes of solvent giving a clear solution ([11]; methanol): 100 volumes
volumes of solvent giving a clear solution ([11]; methanol:anisole 1:1, at RT): 10 volumes
GVS: changes in the XRPD after the experiment [5]: very slight changes
GVS: moisture uptake on loading ([5]; between 40-50% RH): 1 % w/w
GVS: moisture content on desorption ([5]; between 90-10% on desorption): 5.7 % w/w
XRPD form after maturation ([12]; acetic acid: water 1:3, 25° C.): unchanged Form 2
XRPD form after maturation ([12]; acetic acid: water 1:3, 90° C.): some evidence of the acetic acid solvate Form 6 mixed with a majority of Form 2
XRPD form after maturation ([12]; pure water, 25° C.): unchanged Form 2
XRPD form after maturation ([12]; pure water, 90° C.): Form 2
change in appearance [6]: No change in appearance
change of water content, as determined by KF [6]: No significant change
